This note sets out measurements from patent publication US20260083865A1, “PROSTATE SPECIFIC MEMBRANE ANTIGEN (PSMA) LIGANDS AND USE THEREOF” (priority 2022, published 2026).

Numbered stars: 1 amine (or outer) side, 2 acyl side, 3 side chain; on linkers, the order of the positions; unused ones are H or OH. Bridge positions count the residues as written; N and C are the ends. Square brackets hold non-standard residues; d marks the D form. Peptide text beside a SMILES is read from it. * marks the point of attachment. TtdsdLys(DOTA)NH2 = NC(=O)[C@@H](CCCCNC(=O)CN1CCN(CC(=O)O)CCN(CC(=O)O)CCN(CC(=O)O)CC1)NC(=O)CCC(=O)NCCCOCCOCCOCCCN*; DOTA = O=C(O)CN1CCN(CC(=O)O)CCN(CC(=O)*)CCN(CC(=O)O)CC1; Phe(4-Cl) = N[C@@H](Cc1ccc(Cl)cc1)C(=O)O; Phe(4-F) = N[C@@H](Cc1ccc(F)cc1)C(=O)O; Arg(Me) = CNC(=N)NCCC[C@H](N)C(=O)O; 3Pal = N[C@@H](Cc1cccnc1)C(=O)O; X1 = O=C(CC1CCN([*:1])CC1)[*:2]; Cit = NC(=O)NCCC[C@H](N)C(=O)O; Lys(Me) = CNCCCC[C@H](N)C(=O)O; Tle = CC(C)(C)[C@H](N)C(=O)O; Isovaleryl = CC(C)CC(=O)*; Aib = CC(C)(N)C(=O)O; GABA = NCCCC(=O)O

The target of assay [1] is T1, PSMA-expressing C4-2 cells (Homo sapiens, UniProt Q04609).
T1 construct: PSMA-expressing C4-2 cells (ATCC, Cat. No. CRL-3314) were cultured in RPMI-1640; host or cells: C4-2 cells
The assay can be described thus: FACS binding assay (competition with 50 nM PSM-0183). The conditions noted are these: FACS binding, PSMA-expressing C4-2 cells; pIC50 category; read-out: pIC50 [C4-2] CAT (converted). In a few lines:
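Competition format: fluorescent tracer PSM-0183 (50 nM) displaced from PSMA on C4-2 cells by a test compound titration over 1 h at 4 °C. Bound tracer was quantified as flow-cytometric AF488 median fluorescence after washing. Four-parameter logistic fits of MFI data gave IC50 and pIC50.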
Background: Flow cytometry measures light scatter and fluorescence of single cells or particles in a stream.

In assay [2] the target is T2, Fc-fusion protein of human PSMA (hPSMA-Fc) (Homo sapiens, UniProt Q04609).
T2 construct: purchased Acro Biosystems PSA-H5264
The experiment in a line: Surface plasmon resonance assay (Biacore T200, single cycle kinetic). The assay is classed as binding. As to conditions: PSMA SPR assay, hPSMA-Fc, 25° C.; pKD category; read-out: pKD CAT (converted). The method, boiled down: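 KD, expressed as pKD, came from 1:1 Langmuir fits of reference- and buffer-blank-subtracted SPR data. The runs were single-cycle kinetics at 25° C in HBST/0.1% DMSO over human PSMA-Fc, captured to ~1000 RU on a peptide-coated CM5 surface and regenerated with 10 mM glycine pH 1.5.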
(In general: SPR reads the build-up and loss of mass on a sensor chip optically.)

T1 sequence (Q04609 whole entry): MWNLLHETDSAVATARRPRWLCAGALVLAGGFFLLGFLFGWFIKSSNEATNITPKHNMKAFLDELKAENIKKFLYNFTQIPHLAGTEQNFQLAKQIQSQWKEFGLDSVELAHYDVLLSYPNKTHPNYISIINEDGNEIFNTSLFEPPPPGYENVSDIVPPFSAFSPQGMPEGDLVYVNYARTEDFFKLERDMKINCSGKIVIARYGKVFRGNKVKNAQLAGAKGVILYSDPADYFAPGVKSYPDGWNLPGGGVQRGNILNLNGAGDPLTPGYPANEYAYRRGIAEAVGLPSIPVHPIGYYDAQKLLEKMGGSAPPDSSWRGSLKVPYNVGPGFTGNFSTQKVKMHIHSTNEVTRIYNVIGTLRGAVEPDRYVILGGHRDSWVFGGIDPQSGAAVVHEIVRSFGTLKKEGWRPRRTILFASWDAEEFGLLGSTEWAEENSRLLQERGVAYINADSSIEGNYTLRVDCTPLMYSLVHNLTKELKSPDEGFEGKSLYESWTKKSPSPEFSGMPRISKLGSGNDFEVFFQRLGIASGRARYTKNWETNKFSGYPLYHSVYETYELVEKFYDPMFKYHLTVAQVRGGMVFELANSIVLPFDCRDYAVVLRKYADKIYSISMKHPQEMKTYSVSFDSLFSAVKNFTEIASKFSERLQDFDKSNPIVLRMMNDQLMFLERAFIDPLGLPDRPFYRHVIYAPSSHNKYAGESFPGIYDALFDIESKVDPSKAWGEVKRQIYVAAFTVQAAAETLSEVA
T2 sequence (Q04609 44-750 limits assumed): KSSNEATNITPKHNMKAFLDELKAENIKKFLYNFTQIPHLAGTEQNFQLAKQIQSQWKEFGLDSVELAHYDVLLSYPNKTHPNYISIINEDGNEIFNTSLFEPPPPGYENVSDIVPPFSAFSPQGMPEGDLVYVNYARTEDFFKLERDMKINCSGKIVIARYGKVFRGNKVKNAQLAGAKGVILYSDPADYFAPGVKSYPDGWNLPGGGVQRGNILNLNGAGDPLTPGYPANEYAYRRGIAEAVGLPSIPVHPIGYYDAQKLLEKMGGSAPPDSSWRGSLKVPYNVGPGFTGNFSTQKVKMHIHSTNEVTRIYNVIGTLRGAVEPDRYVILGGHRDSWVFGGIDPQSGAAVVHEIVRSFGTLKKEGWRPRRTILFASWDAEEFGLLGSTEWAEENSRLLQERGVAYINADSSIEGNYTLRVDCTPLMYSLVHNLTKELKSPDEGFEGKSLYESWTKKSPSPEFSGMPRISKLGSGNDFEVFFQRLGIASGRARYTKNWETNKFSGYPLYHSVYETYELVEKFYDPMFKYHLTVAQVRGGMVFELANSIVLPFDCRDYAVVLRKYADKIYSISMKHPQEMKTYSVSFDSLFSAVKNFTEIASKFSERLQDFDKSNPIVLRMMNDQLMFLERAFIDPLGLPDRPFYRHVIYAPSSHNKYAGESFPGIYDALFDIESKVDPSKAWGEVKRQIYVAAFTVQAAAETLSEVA

`CC(C)CC(=O)NC(C)(C)C(=O)N[C@@H](Cc1ccccc1)C(=O)N[C@H]1CSSC[C@@H](C(=O)N[C@H](C(=O)N[C@H](C(=O)N[C@H](CCCCNC(=O)CN2CCN(CC(=O)O)CCN(CC(=O)O)CCN(CC(=O)O)CC2)C(N)=O)[C@@H](C)O)C(C)(C)C)NC(=O)[C@H](CC(N)=O)NC(=O)C(C)(C)NC(=O)[C@H](CCCNC(=N)N)NC(=O)[C@H](CCCCN)NC1=O` [PSM-0292, Iva-Aib-Phe-[Cys-Lys-Arg-Aib-Asn-Cys]-Tle-Thr-lys(DOTA)-NH2] (Isovaleryl-[Aib]FCKR[Aib]NC[Tle]T[dK](DOTA)-NH2; disulfide 3-8): in assay [1], the IC50 is less than 200 nM. In addition, the Kd in assay [2] was 12.6 to 126 nM.
As for `CC(=O)N[C@H](C(=O)NC(C)(C)C(=O)N[C@@H](Cc1ccc(Cl)cc1)C(=O)N[C@H]1CSSC[C@@H](C(=O)N[C@H](C(=O)N[C@H](C(N)=O)[C@@H](C)O)C(C)(C)C)NC(=O)[C@H](CO)NC(=O)C(C)(C)NC(=O)[C@H](CCCNC(N)=O)NC(=O)[C@H](CCCCN)NC1=O)[C@@H](C)O` [PSM-0293, Ac-Thr-Aib-Pcf-[Cys-Lys-Cit-Aib-Ser-Cys]-Tle-Thr-NH2] (Ac-T[Aib][Phe(4-Cl)]CK[Cit][Aib]SC[Tle]T-NH2; disulfide 4-9), the IC50 in assay [1] was less than 200 nM. Also, the Kd in assay [2] is less than 12.6 nM.
The like results for `CC(=O)N[C@H](C(=O)NC(C)(C)C(=O)N[C@@H](Cc1ccc(F)cc1)C(=O)N[C@H]1CSSC[C@@H](C(=O)N[C@H](C(=O)N[C@H](C(N)=O)[C@@H](C)O)C(C)(C)C)NC(=O)[C@H](CC(N)=O)NC(=O)C(C)(C)NC(=O)[C@H](CCCNC(=N)N)NC(=O)[C@H](CCCCN)NC1=O)[C@@H](C)O` [PSM-0294, Ac-Thr-Aib-Pff-[Cys-Lys-Arg-Aib-Asn-Cys]-Tle-Thr-NH2] (Ac-T[Aib][Phe(4-F)]CKR[Aib]NC[Tle]T-NH2; disulfide 4-9) were, in that order, less than 200 nM and less than 12.6 nM.
Take `CC(=O)N[C@H](C(=O)NC(C)(C)C(=O)N[C@@H](Cc1ccccc1)C(=O)N[C@H]1CSSC[C@@H](C(=O)N[C@H](C(=O)N[C@H](C(=O)N[C@@H](CC(=O)O)C(=O)NCCCOCCOCCOCCCNC(=O)CCC(=O)N[C@H](CCCCNC(=O)CN2CCN(CC(=O)O)CCN(CC(=O)O)CCN(CC(=O)O)CC2)C(N)=O)[C@@H](C)O)C(C)(C)C)NC(=O)[C@H](CC(N)=O)NC(=O)[C@H](C)NC(=O)[C@H](CCCNC(=N)N)NC(=O)[C@H](CCCCN)NC1=O)[C@@H](C)O` [PSM-0295, Ac-Thr-Aib-Phe-[Cys-Lys-Arg-Ala-Asn-Cys]-Tle-Thr-Asp-Ttds-lys(DOTA)-NH2] (Ac-T[Aib]FCKRANC[Tle]TD-{TtdsdLys(DOTA)NH2}; disulfide 4-9): the IC50 in assay [1] is less than 200 nM. In addition, the Kd in assay [2] was less than 12.6 nM.
With `CNCCCC[C@@H]1NC(=O)[C@@H](NC(=O)[C@H](Cc2cccnc2)NC(=O)C(C)(C)NC(=O)[C@@H](NC(=O)CC2CCN(C(=O)CN3CCN(CC(=O)O)CCN(CC(=O)O)CCN(CC(=O)O)CC3)CC2)[C@@H](C)O)CSSC[C@@H](C(=O)N[C@H](C(=O)N[C@H](C(N)=O)[C@@H](C)O)C(C)(C)C)NC(=O)[C@H](CC(N)=O)NC(=O)C(C)(C)NC(=O)[C@H](CCCNC(=N)NC)NC1=O` [PSM-0296, DOTA-Cmp-Thr-Aib-Mpa-[Cys-Lys(Me)-Arg(Me)-Aib-Asn-Cys]-Tle-Thr-NH2] ({DOTA}-[X1]T[Aib][3Pal]C[Lys(Me)][Arg(Me)][Aib]NC[Tle]T-NH2; disulfide 5-10), in assay [1], the IC50 is 200 to 1260 nM. In addition, the Kd in assay [2] was 126 to 501 nM.
Regarding `CC(=O)N[C@H](C(=O)NC(C)(C)C(=O)N[C@@H](Cc1ccccc1)C(=O)N[C@H]1CSSC[C@@H](C(=O)N[C@H](C(=O)NCCCC(N)=O)C(C)(C)C)NC(=O)[C@H](CC(N)=O)NC(=O)C(C)(C)NC(=O)[C@H](CCCNC(=N)N)NC(=O)[C@H](CCCCN)NC1=O)[C@@H](C)O` [PSM-0297, Ac-Thr-Aib-Pho-[Cys-Lys-Arg-Aib-Asn-Cys]-Tle-Gab-NH2] (Ac-T[Aib]FCKR[Aib]NC[Tle][GABA]-NH2; disulfide 4-9), the IC50 in assay [1] is less than 200 nM. In assay [2], the Kd was less than 12.6 nM.
As for `CC(=O)NC(=N)NCCC[C@@H]1NC(=O)[C@H](CCCCN)NC(=O)[C@@H](NC(=O)[C@H](Cc2ccc(Cl)cc2)NC(=O)C(C)(C)NC(C)=O)CSSC[C@@H](C(=O)N[C@H](C(=O)N[C@H](C(=O)N2CCC(CC(=O)N[C@H](CCCCNC(=O)CN3CCN(CC(=O)O)CCN(CC(=O)O)CCN(CC(=O)O)CC3)C(N)=O)CC2)[C@@H](C)O)C(C)(C)C)NC(=O)[C@H](CC(N)=O)NC(=O)C(C)(C)NC1=O` [PSM-0298, Ac-Aib-Pcf-[Cys-Lys-Arg(Ac)-Aib-Asn-Cys]-Tle-Thr-Cmp-lys(DOTA)-NH2] (Ac-[Aib][Phe(4-Cl)]CKR(Ac)[Aib]NC[Tle]T[X1][dK](DOTA)-NH2; disulfide 3-8), the IC50 in assay [1] was 200 to 1260 nM. Moreover, in assay [2], the Kd was 12.6 to 126 nM.
